Test results reported in ChEMBL document CHEMBL1132318, “Hydroxylated decahydroquinolines as ligands for the vesicular acetylcholine transporter: synthesis and biological evaluation” (J Med Chem, 1999).

How the values were obtained:
[1] = Binding affinity against Sigma opioid receptor type 1 in guinea pig brain membranes using [3H](+)-pentazocine as radioligand
[2] = Displacement of [3H]vesamicol from Vesicular Acetylcholine Transporter (VAChT)

| SMILES | Ki [1] | Ki [2] |
| --- | --- | --- |
| O[C@@H]1CCCC[C@H]1N1CCC(c2ccccc2)CC1 [VESAMICOL] | 26 nM |  |
| O[C@@H]1CCN(Cc2cccc(I)c2)C[C@H]1N1CCC(c2ccccc2)CC1 (racemic) |  | 0.13 nM |
